From US20190002436A1, “RESPIRATORY SYNCYTIAL VIRUS INHIBITORS” (MEDIVIR AB, priority 2015, published 2019) come the findings set out here.

Structures are written as SMILES. Like-named read-outs stand apart in the source and are kept apart here.

The subject of the test is RSV (Long). Nature of the test: RSV cytopathic effect (CPE)-based viral replication assay. Format: cell-based, respiratory syncytial virus (RSV). The following applies: human respiratory syncytial virus, HEp-2, 72 h, read-out: EC50 (nm). The essentials:
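HEp-2 cells, 2,500 per well in DMEM with 2% heat-inactivated FBS, treated with 10-point compound dilutions and infected with RSV Long at MOI 0.015. After 3 days at 37 °C, 5% CO2, viability read by CellTiter-Glo luminescence; EC50 derived from CPE data.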
A general note: Damage to the host cells serves as the signal in cytopathic effect assays.

The mark [1] stands for this setting: HEp-2 cells infected with RSV Long at MOI 0.015, 3 days at 37° C., cell viability by CellTiter-Glo luminescence.

Turning to `O=C1N(Cc2ncc3ccccc3c2-c2ccc(F)nc2)c2ccccc2C12CN(CCF)C2` [Example 86, 1-(2-fluoroethyl)-1′-((4-(6-fluoropyridin-3-yl)isoquinolin-3-yl)methyl)spiro[azetidine-3,3′-indolin]-2′-one], the EC50 (in general, the concentration that produces a half-maximal response) under setting [1] was determined as 20 nM. Still for that read-out and setting: with `O=c1n(Cc2ncc3ccccc3c2-c2ccc(O)nc2)c2ccccc2n1C1CC1` [Example 88, 1-Cyclopropyl-3-((4-(6-hydroxypyridin-3-yl)isoquinolin-3-yl)methyl)-1H-benzo[d]imidazol-2(3H)-one] the figure was 8.5 nM. Turning to `CNC(=O)OC1CC2(C1)C(=O)N(Cc1ncc3ccccc3c1-c1ccc(C#N)nc1)c1ccccc12` (centres unmarked) [Example 89, 1′-((4-(6-Cyanopyridin-3-yl)isoquinolin-3-yl)methyl)-2′-oxospiro[cyclobutane-1,3′-indolin]-3-yl methylcarbamate], the EC50 is 5.8 nM.

`CC1(n2c(=O)n(Cc3ncc4ccccc4c3-c3ccc(C#N)nc3)c3ccccc32)CC1` [Example 90b, 5-(3-((3-(1-methylcyclopropyl)-2-oxo-2,3-dihydro-1H-benzo[d]imidazol-1-yl)methyl)isoquinolin-4-yl)picolinonitrile]: the EC50 under setting [1] was found to be 5.1 nM. With `CC1(OC(=O)N2CC3(C2)C(=O)N(Cc2ncc4ccccc4c2-c2ccc(C#N)nc2)c2ccccc23)CC1` [Example 91b, 1-Methylcyclopropyl 1′-((4-(6-cyanopyridin-3-yl)isoquinolin-3-yl)methyl)-2′-oxospiro[azetidine-3,3′-indoline]-1-carboxylate], under setting [1], the EC50 came out at 0.4 nM.

Consider `COC(=O)N1CC2(C1)C(=O)N(Cc1ncc3ccccc3c1-c1cccnc1)c1ccccc12` [Example 92b, Methyl 2′-oxo-1′-((4-(pyridin-3-yl)isoquinolin-3-yl)methyl)spiro[azetidine-3,3′-indoline]-1-carboxylate], for which the EC50 under setting [1] turned out to be 0.67 nM. In the case of `COC(=O)N1CC2(C1)C(=O)N(Cc1ncc3ccccc3c1-c1ccc(C#N)c(F)c1)c1ccccc12` [Example 93, Methyl 1′-((4-(4-cyano-3-fluorophenyl)isoquinolin-3-yl)methyl)-2′-oxospiro[azetidine-3,3′-indoline]-1-carboxylate], the half-maximal effective concentration (EC50) came to 4.4 nM. Consider `NC1(C(=O)N2CC3(C2)C(=O)N(Cc2ncc4ccccc4c2-c2cncc(F)c2)c2ccccc23)CC1` [Example 94, 1-(1-aminocyclopropanecarbonyl)-1′-((4-(5-fluoropyridin-3-yl)isoquinolin-3-yl)methyl)spiro[azetidine-3,3′-indolin]-2′-one], for which, under setting [1], the EC50 turned out to be 20 nM. In the case of `COC(=O)N1CC2(C1)C(=O)N(Cc1ncc3ccccc3c1-c1ccnc(F)c1)c1ccccc12` [Example 95b, Methyl 1′-((4-(2-fluoropyridin-4-yl)isoquinolin-3-yl)methyl)-2′-oxospiro[azetidine-3,3′-indoline]-1-carboxylate], the EC50 under setting [1] was 1.8 nM. On the same count and under the same terms, with `COC(=O)N1CC2(C1)C(=O)N(Cc1ncc3ccccc3c1-c1ccc(F)nc1F)c1ccccc12` [Example 96, Methyl 1′-((4-(2,6-difluoropyridin-3-yl)isoquinolin-3-yl)methyl)-2′-oxospiro[azetidine-3,3′-indoline]-1-carboxylate] the figure was 2.2 nM.

For the molecule `COC(=O)N1CC2(C1)C(=O)N(Cc1ncc3ccccc3c1-c1ccncc1)c1ccccc12` [Example 97, Methyl 2′-oxo-1′-((4-(pyridin-4-yl)isoquinolin-3-yl)methyl)spiro[azetidine-3,3′-indoline]-1-carboxylate], the EC50 under setting [1] was 0.45 nM.

In the case of `CS(=O)(=O)N1CCC2(CC1)C(=O)N(Cc1ncc3ccccc3c1-c1cncs1)c1cnccc12` [Example 98c], the EC50 under setting [1] came to 1.9 nM.

For `COC(=O)N1CC2(C1)C(=O)N(Cc1ncc3ccccc3c1-c1ccc(S(N)(=O)=O)cc1)c1ccccc12` [Example 99, Methyl 2′-oxo-1′-((4-(4-sulfamoylphenyl)isoquinolin-3-yl)methyl)spiro[azetidine-3,3′-indoline]-1-carboxylate], the EC50 under setting [1] was 0.75 nM. As to `COC(=O)N1CC2(C1)C(=O)N(Cc1ncc3ccccc3c1-c1cncs1)c1ccccc12` [Example 100, Methyl 2′-oxo-1′-((4-(thiazol-5-yl)isoquinolin-3-yl)methyl)spiro[azetidine-3,3′-indoline]-1-carboxylate], under setting [1], the EC50 worked out at 0.4 nM.

`COC(=O)N1CC2(C1)C(=O)N(Cc1ncc3ccccc3c1-c1ccc(C#N)cn1)c1ccccc12` [Example 101, Methyl 1′-((4-(5-cyanopyridin-2-yl)isoquinolin-3-yl)methy)-2′-oxospiro[azetidine-3,3′-indoline]-1-carboxylate]: the EC50 is 11 nM. For the molecule `COC(=O)N1CC2(C1)C(=O)N(Cc1ncc3ccccc3c1-c1ccccn1)c1ccccc12` [Example 102, Methyl 2′-oxo-1′-((4-(pyridin-2-yl)isoquinolin-3-yl)methyl)spiro[azetidine-3,3′-indoline]-1-carboxylate], the EC50 under setting [1] worked out at 194 nM. Take `COC(=O)N1CC2(C1)C(=O)N(Cc1ncc3ccccc3c1-c1cnccn1)c1ccccc12` [Example 103, Methyl 2′-oxo-1′-((4-(pyrazin-2-yl)isoquinolin-3-yl)methyl)spiro[azetidine-3,3′-indoline]-1-carboxylate]: under setting [1], the EC50 was 18 nM. `COC(=O)N1CC2(C1)C(=O)N(Cc1ncc3ccccc3c1-c1ccc(N)nc1)c1ccccc12` [Example 104, methyl 1′-((4-(6-aminopyridin-3-yl)isoquinolin-3-yl)methyl)-2′-oxospiro[azetidine-3,3′-indoline]-1-carboxylate]: the EC50 under setting [1] turned out to be 1.5 nM. On the same count and under the same terms, with `COC(=O)N1CC2(C1)C(=O)N(Cc1ncc3ccccc3c1-c1ccc(NS(C)(=O)=O)cc1)c1ccccc12` [Example 105, methyl 1′-((4-(4-(methylsulfonamido)phenyl)isoquinolin-3-yl)methyl)-2′-oxospiro[azetidine-3,3′-indoline]-1-carboxylate] the figure was 0.85 nM; with `NC1(C(=O)N2CCC3(CC2)C(=O)N(Cc2ncc4ccccc4c2-c2cncc(F)c2)c2cnccc23)CC1` [Example 106c, 1-(1-aminocyclopropanecarbonyl)-1′-((4-(5-fluoropyridin-3-yl)isoquinolin-3-yl)methyl)spiro[piperidine-4,3′-pyrrolo[2,3-c]pyridin]-2′(1′H)-one], 3.7 nM; with `CNC1(C(=O)N2CCC3(CC2)C(=O)N(Cc2ncc4ccccc4c2-c2ccc(C(N)=O)nc2)c2cnccc23)CC1` [Example 108b, 5-(3-((1-(1-(Methylamino)cyclopropanecarbonyl)-2′-oxospiro[piperidine-4,3′-pyrrolo[2,3-c]pyridin]-1′(2′H)-yl)methyl)isoquinolin-4-yl)picolinamide], 1.2 nM. Take `CNC1(C(=O)N2CCC3(CC2)C(=O)N(Cc2ncc4ccccc4c2-c2ccc(C(=O)NC4CC4)nc2)c2cnccc23)CC1` [Example 109, N-cyclopropyl-5-(3-((1-(1-(methylamino)cyclopropanecarbonyl)-2′-oxospiro[piperidine-4,3′-pyrrolo[2,3-c]pyridin]-1′(2′H)-yl)methyl)isoquinolin-4-yl)picolinamide]: the EC50 under setting [1] was 3.8 nM. With `CS(=O)(=O)N1CCC2(CC1)C(=O)N(Cc1ncc3ccccc3c1-c1ccc(F)nc1)c1cnccc12` [Example 110b, 1′-((4-(6-fluoropyridin-3-yl)isoquinolin-3-yl)methyl)-1-(methylsulfonyl)spiro[piperidine-4,3′-pyrrolo[2,3-c]pyridin]-2′(1′H)-one], the EC50 under setting [1] came out at 0.86 nM.
